Source: BindingDB's records for patent US20250313563 (The Broad Institute, 2025)
Values joined by “and” are separate entries in the source; they are usually repeats but may differ in a detail not shown here. Identical values can stand only once.

How the values were obtained:
[1] = molecular target: Glycogen synthase kinase-3 alpha (Homo sapiens, UniProt P49840); assay: TR-FRET Assay
Experimental: (§1) The assay was performed in a white, 384 well, low volume, flat bottom plate (Grenier). […] The kinase activity was quenched with 2 μL of 250 mM EDTA. A 10 μL volume of 40 nM Strepavidin-d2, 2 nM Tb2+-pSer641 antibody in TR-FRET Detection Buffer (Invitrogen) was then added.

[2] = molecular target: Glycogen synthase kinase-3 beta (Homo sapiens, UniProt P49841); assay: TR-FRET Assay
Chain of Glycogen synthase kinase-3 beta (P49841 whole entry): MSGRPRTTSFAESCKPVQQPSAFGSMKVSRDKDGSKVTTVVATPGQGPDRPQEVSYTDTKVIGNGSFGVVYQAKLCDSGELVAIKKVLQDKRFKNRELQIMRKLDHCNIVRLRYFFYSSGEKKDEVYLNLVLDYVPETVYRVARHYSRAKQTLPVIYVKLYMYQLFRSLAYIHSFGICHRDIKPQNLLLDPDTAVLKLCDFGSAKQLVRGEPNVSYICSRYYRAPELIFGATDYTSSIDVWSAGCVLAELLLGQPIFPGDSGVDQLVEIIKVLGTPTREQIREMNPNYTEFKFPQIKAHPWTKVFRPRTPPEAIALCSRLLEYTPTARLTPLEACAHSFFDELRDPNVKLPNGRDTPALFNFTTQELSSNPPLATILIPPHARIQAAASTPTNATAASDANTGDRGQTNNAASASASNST
Experimental: as §1

Chain of Glycogen synthase kinase-3 alpha (P49840 whole entry): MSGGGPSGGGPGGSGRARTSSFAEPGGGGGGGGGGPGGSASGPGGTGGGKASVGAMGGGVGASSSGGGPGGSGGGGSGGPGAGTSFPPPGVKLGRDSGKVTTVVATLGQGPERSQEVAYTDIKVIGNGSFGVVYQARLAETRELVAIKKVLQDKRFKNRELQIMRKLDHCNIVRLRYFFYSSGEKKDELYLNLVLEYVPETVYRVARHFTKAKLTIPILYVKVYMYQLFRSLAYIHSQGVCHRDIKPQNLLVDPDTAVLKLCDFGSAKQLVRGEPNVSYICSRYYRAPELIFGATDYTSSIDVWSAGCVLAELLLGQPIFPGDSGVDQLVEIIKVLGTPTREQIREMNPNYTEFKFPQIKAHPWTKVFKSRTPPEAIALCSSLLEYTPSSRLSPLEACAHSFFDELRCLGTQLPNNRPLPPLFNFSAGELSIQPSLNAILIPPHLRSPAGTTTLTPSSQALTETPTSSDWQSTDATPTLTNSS

Compound	IC50 [1]	IC50 [2]
CC[C@]1(c2cccc(-c3ccnc(C(F)F)c3)c2)C2=CN=NC2NC2=C1C(=O)NC(C)(C)C2 (some centres undefined) [US20250313563, Compound 949388]	1 to 5 µM	> 5 µM
CC[C@@]1(c2cccc(S(=O)(=O)CCOC)c2)C2=CN=NC2NC2=C1C(=O)CC(C)(C)C2 (some centres undefined) [US20250313563, Compound 943546]	1 to 5 µM	> 5 µM
CC[C@]1(c2cccc(-c3cn(C)nc3C)c2)C2=C(CC(C)(C)NC2=O)NC2N=NC(C)=C21 (some centres undefined) [US20250313563, Compound 945996]	0.1 to 1 µM	1 to 5 µM
CC[C@]1(c2cccc(-c3cc(C)nnc3C)c2)C2=CN=NC2NC2=C1C(=O)NC(C)(C)C2 (some centres undefined) [US20250313563, Compound 949334]	1 to 5 µM	> 5 µM
CC[C@]1(c2cccc([C@@H]3CCOC(C)(C)C3)c2)C2=CN=NC2NC2=C1C(=O)CC(C)(C)C2 (some centres undefined) [US20250313563, Compound 912089]	0.1 to 1 µM	0.1 to 1 µM
C[C@H]1CC(=O)C2=C(C1)NC1=C(CN=N1)C21CCOCC1 [US20250313563, Compound 912078]	0.1 to 1 µM	0.1 to 1 µM
CC[C@@]1(c2cccc(N(C)c3ccnnc3)c2)C2=CN=NC2NC2=C1C(=O)CC(C)(C)C2 (some centres undefined) [US20250313563, Compound 915630]	0.1 to 1 µM	1 to 5 µM
CC[C@]1(c2ccccc2)C2=CN=NC2NC2=C1C(=O)CC(C)(C)[C@H]2F (some centres undefined) [US20250313563, Compound 957197]	0.1 to 1 µM and > 5 µM	1 to 5 µM and > 5 µM
CC[C@]1(c2cccc(N(C)c3ncccn3)c2)C2=C(CC(C)(C)NC2=O)NC2N=NC(Cl)=C21 (some centres undefined) [US20250313563, Compound 951592]	> 5 µM	> 5 µM
C[S@+]([O-])c1cccc([C@]2(C)C3=C(CC(C)(C)CC3=O)NC3=C2C(CC(C)(C)C)N=N3)c1 (some centres undefined) [US20250313563, Compound 126190]	1 to 5 µM	0.1 to 1 µM
CC1(C)CC(=O)C2=C(C1)NC1=C(CN=N1)C2(C)c1cc(Cl)cc(Cl)c1 (centres undefined) [US20250313563, Compound 789337]	0.1 to 1 µM	1 to 5 µM
CC1(C)CC(=O)C2=C(C1)NC1=C(CN=N1)C21CCN(S(=O)(=O)c2ccc(F)cn2)CC1 [US20250313563, Compound 947251]	0.1 to 1 µM	0.1 to 1 µM
Cc1cccc(S(=O)(=O)N2CC[C@@]3(C2)C2=C(N=NC2)NC2=C3C(=O)CC(C)(C)C2)c1 [US20250313563, Compound 951863]	0.1 to 1 µM	0.1 to 1 µM
CC[C@@]1(c2cccc(C(F)(F)F)c2)C2=CN=NC2NC2=C1C(=O)N(c1cnc(OC)nc1)CC2 (some centres undefined) [US20250313563, Compound 949127]	1 to 5 µM	> 5 µM
Cn1cc([C@H]2CC[C@@]3(CC2)C2=C(N=NC2)NC2=C3C(=O)CC(C)(C)C2)cn1 [US20250313563, Compound 949323]	1 to 5 µM	> 5 µM
CCC1(c2ccccc2)C2=C(N=NC2)NC2=C1C(=O)C(C)(C)SC2 (centres undefined) [US20250313563, Compound 862028]	0.1 to 1 µM	1 to 5 µM
CC1(C)CC(=O)C2=C(NC3=C(CN=N3)[C@]23CC[C@@H](C(F)(F)F)CC3)[C@H]1F [US20250313563, Compound 918285]	< 0.1 µM and 1 to 5 µM	0.1 to 1 µM and > 5 µM

Compound	IC50 [1]	IC50 [2]
CC[C@@]1(c2cccc(-c3ccncc3OC)c2)C2=CN=NC2NC2=C1C(=O)CC(C)(C)C2 (some centres undefined) [US20250313563, Compound 945471]	1 to 5 µM and > 5 µM	1 to 5 µM and > 5 µM
CC1(C)CC(=O)C2=C(C1)NC1=C(CN=N1)C21CCC(C(=O)N2CCCC2)CC1 (centres undefined) [US20250313563, Compound 945396]	0.1 to 1 µM	0.1 to 1 µM
CC[C@@]1(c2cccc(-c3cn(C)nc3C3CC3)c2)C2=CN=NC2NC2=C1C(=O)NC(C)(C)C2 (some centres undefined) [US20250313563, Compound 951706]	< 0.1 µM	< 0.1 µM
CN1CCCC2(CC1)C1=C(N=NC1)NC1=C2C(=O)CC(C)(C)C1 (centres undefined) [US20250313563, Compound 893313]	> 5 µM	> 5 µM
CC[C@@]1(c2cccc(-c3ccnn3C)c2)C2=CN=NC2NC2=C1C(=O)N[C@]1(CCCOC1)C2 (some centres undefined) [US20250313563, Compound 948529]	< 0.1 µM and 0.1 to 1 µM	0.1 to 1 µM and 1 to 5 µM
CC[C@@]1(c2cccc(N(C)c3nccc(C)n3)c2)C2=CN=NC2NC2=C1C(=O)CC(C)(C)C2 (some centres undefined) [US20250313563, Compound 945329]	0.1 to 1 µM	1 to 5 µM
CC[C@@]1(c2cccc(-c3cnn4c3CCCC4)c2)C2=C(CC(C)(C)CC2=O)NC2N=NC(C)=C21 (some centres undefined) [US20250313563, Compound 913033]	0.1 to 1 µM	1 to 5 µM
CCC1(c2cccc(-c3ccnc4c3CCC4)c2)C2=C(N=NC2)NC2=C1C(=O)C(C)(C)C2 (centres undefined) [US20250313563, Compound 952557]	< 0.1 µM	0.1 to 1 µM
CCC1(c2cccc(N(C)c3ncccn3)c2)C2=C(CC(C)(C)NC2=O)NC2N=NC(C(F)(F)F)=C21 (centres undefined) [US20250313563, Compound 948176]	< 0.1 µM	< 0.1 µM
CC[C@]1(c2cccc(Br)c2)C2=C(C[C@@H](C)CC2=O)NC2N=NC(C(F)(F)F)=C21 (some centres undefined) [US20250313563, Compound 828847]	< 0.1 µM	< 0.1 µM
CC[C@@]1(c2cccc([C@@H]3CCOC(C)(C)C3)c2)C2=CN=NC2NC2=C1C(=O)CC(C)(C)C2 (some centres undefined) [US20250313563, Compound 912091]	> 5 µM	> 5 µM
CC1(C)CC(=O)C2=C(C1)NC1=C(CN=N1)C21CCN(S(=O)(=O)c2ccccc2C#N)CC1 [US20250313563, Compound 947479]	< 0.1 µM	< 0.1 µM
CCC1(c2cccc(S(C)(=O)=O)c2)C2=CN=NC2NC2=C1C(=O)CC(C)(C)C2 (centres undefined) [US20250313563, Compound 819561]	< 0.1 µM	< 0.1 µM
O=C1CC2(CSC2)CC2=C1C1(CCCC1)C1=CN=NC1N2 (centres undefined) [US20250313563, Compound 913441]	0.1 to 1 µM	0.1 to 1 µM
CCC1(c2cccc(N(C)C(=O)c3ccn(C)n3)c2)C2=CN=NC2NC2=C1C(=O)CC(C)(C)C2 (centres undefined) [US20250313563, Compound 917130]	< 0.1 µM	0.1 to 1 µM
CC[C@]1(c2cccc(C(F)(F)F)c2)C2=CN=NC2NC2=C1C(=O)N(C)CC2 (some centres undefined) [US20250313563, Compound 917282]	< 0.1 µM	0.1 to 1 µM
CCC1(c2cccc(N(C)C(=O)COC)c2)C2=CN=NC2NC2=C1C(=O)CC(C)(C)C2 (centres undefined) [US20250313563, Compound 889580]	< 0.1 µM	0.1 to 1 µM

The next lines start with the values.

IC50 [1]	IC50 [2]	Compound
< 0.1 µM	< 0.1 µM	CCC1(c2cccc(-c3ccncc3C)c2)C2=C(CC(C)(C)CC2=O)NC2N=NC(C)=C21 (centres undefined) [US20250313563, Compound 883991]
< 0.1 µM	< 0.1 µM	COc1ccc(S(=O)(=O)N2CCC3(CC2)C2=C(N=NC2)NC2=C3C(=O)CC(C)(C)C2)cc1C [US20250313563, Compound 945680]
< 0.1 µM	< 0.1 µM and 0.1 to 1 µM	CC[C@@]1(c2cccc(N(C)c3ncccn3)c2)C2=C(CC(C)(C)NC2=O)NC2N=NC(C(F)F)=C21 (some centres undefined) [US20250313563, Compound 951740]
< 0.1 µM	0.1 to 1 µM	CCc1cnccc1-c1cccc([C@@]2(CC)C3=CN=NC3NC3=C2C(=O)NC(C)(C)C3)c1 (some centres undefined) [US20250313563, Compound 948639]
< 0.1 µM	< 0.1 µM	Cc1c(S(=O)(=O)N2CCC3(CC2)C2=C(N=NC2)NC2=C3C(=O)CC(C)(C)C2)cnn1C [US20250313563, Compound 947460]
< 0.1 µM	< 0.1 µM	Cc1cccc(S(=O)(=O)N2CC[C@@]3(C2)C2=C(N=NC2)NC2=C3C(=O)CC(C)(C)C2)c1 [US20250313563, Compound 943489]
< 0.1 µM	< 0.1 µM	CC(=O)N1C[C@@]2(C[C@]3(CO2)C2=C(N=NC2)NC2=C3C(=O)CC(C)(C)C2)[C@@H]1C [US20250313563, Compound 948440]
< 0.1 µM	< 0.1 µM and 0.1 to 1 µM	CC[C@@]1(c2cccc(-c3ccncc3C)c2)C2=CN=NC2NC2=C1C(=O)CC(C)(C)C2 (some centres undefined) [US20250313563, Compound 913047]
< 0.1 µM	< 0.1 µM	CC(C)Oc1ccc(S(=O)(=O)N2CCC3(CC2)C2=C(N=NC2)NC2=C3C(=O)CC(C)(C)C2)cc1 [US20250313563, Compound 945673]
< 0.1 µM	0.1 to 1 µM	CC1N=NC2=C1C1(CN(S(=O)(=O)CC3CC3)C1)C1=C(CC(C)(C)CC1=O)N2 (centres undefined) [US20250313563, Compound 107828]
< 0.1 µM	< 0.1 µM	CCC1(c2cccc(S(=O)(=O)CC3CC3)c2)C2=CN=NC2NC2=C1C(=O)CC(C)(C)C2 (centres undefined) [US20250313563, Compound 913257]
< 0.1 µM	0.1 to 1 µM	CCC1(c2cccc(-c3ccncc3)c2)C2=CN=NC2NC2=C1C(=O)CC(C)C2 (centres undefined) [US20250313563, Compound 856947]
< 0.1 µM	0.1 to 1 µM	CC1(C)CC(=O)C2=C(C1)NC1=C(CN=N1)C21CCC(F)(F)CC1 [US20250313563, Compound 883972]
< 0.1 µM	< 0.1 µM	CCC1(c2cccc(-c3cnn4c3CCCC4)c2)C2=C(CC(C)(C)NC2=O)NC2N=NC(C(F)(F)F)=C21 (centres undefined) [US20250313563, Compound 947801]
< 0.1 µM	0.1 to 1 µM	CC1(C)CC(=O)C2=C(C1)NC1=C(CN=N1)C21CCN(S(=O)(=O)c2cnccc2C(F)(F)F)CC1 [US20250313563, Compound 947463]
< 0.1 µM	0.1 to 1 µM	CC[C@@]1(c2cccc(-c3ccnc(C)c3)c2)C2=C(CC(C)(C)NC2=O)NC2N=NC(F)=C21 (some centres undefined) [US20250313563, Compound 949012]
< 0.1 µM	< 0.1 µM	Cn1ccc(S(=O)(=O)N2CCC[C@]3(CC2)C2=CN=NC2NC2=C3C(=O)CC(C)(C)C2)n1 (some centres undefined) [US20250313563, Compound 932640]
< 0.1 µM	0.1 to 1 µM	CCC1(c2cccc(OC)c2)C2=C(CC(C)(C)NC2=O)NC2N=NC(C(F)(F)F)=C21 (centres undefined) [US20250313563, Compound 949748]
